{
  "source": "ChEMBL document CHEMBL5214923",
  "about": "“Contemporary mTOR inhibitor scaffolds to diseases breakdown: A patent review (2015-2021)” (Eur J Med Chem, 2022)",
  "key": {"[1]": {"target": "T1, mTORC1 (Homo sapiens, UniProt P42345+Q8N122+Q9BVC4)", "test": "Inhibition of mTORC1 (unknown origin) assessed as measuring phosphorylated p7OS6K level at 0.2 uM relative to control", "type": "protein-complex assay"}, "[2]": {"target": "T1, mTORC1", "test": "Inhibition of mTORC1 (unknown origin) assessed as measuring phosphorylated 4EBP1 level at 1 uM relative to control", "type": "protein-complex assay"}, "[3]": {"target": "mTORC2 (Homo sapiens) (UniProt P42345+Q6R327+Q9BVC4+Q9BPZ7)", "test": "Inhibition of mTORC2 (unknown origin) assessed as measuring phosphorylated AKT at 0.5 uM relative to control", "type": "protein-complex assay"}, "[4]": {"target": "Peptidyl-prolyl cis-trans isomerase FKBP1A (Homo sapiens, UniProt P62942)", "sequence (P62942 whole entry)": "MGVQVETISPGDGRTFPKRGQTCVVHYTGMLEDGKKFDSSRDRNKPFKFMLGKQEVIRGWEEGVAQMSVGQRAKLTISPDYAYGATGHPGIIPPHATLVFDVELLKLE", "test": "Binding affinity to FKBP12 (unknown origin) assessed as inhibition constant"}, "[5]": {"system": "SF-268", "test": "Antitumor activity against human SF-268 cells assessed as cell growth inhibition", "type": "functional, cell-based"}, "[6]": {"system": "PC-3", "test": "Antitumor activity against human PC-3 cells assessed as cell growth inhibition", "type": "functional, cell-based"}, "[7]": {"test": "Antitumor activity against human U-87 MG cells assessed as cell growth inhibition", "type": "functional, cell-based, U-87MG ATCC"}, "[8]": {"system": "DU-145", "test": "Antitumor activity against human DU-145 cells assessed as cell growth inhibition", "type": "functional, cell-based"}, "[9]": {"target": "T1, mTORC1", "test": "Inhibition of mTORC1 in human Jurkat cells assessed as inhibition of S6K phosphorylation incubated for 4 hrs by Western blot analysis", "type": "cell-based"}, "[10]": {"target": "T2, Serine/threonine-protein kinase mTOR (Homo sapiens, UniProt P42345)", "test": "Inhibition of mTOR (unknown origin)"}, "[11]": {"target": "T1, mTORC1", "test": "Inhibition of mTORC1 (unknown origin)", "type": "protein-complex assay"}, "[12]": {"target": "mTORC2 (Homo sapiens, UniProt P42345+Q6R327+Q9BPZ7+Q9BVC4)", "test": "Inhibition of mTORC2 (unknown origin)", "type": "protein-complex assay"}, "[13]": {"target": "T2, Serine/threonine-protein kinase mTOR", "test": "Inhibition of human mTOR assessed as measuring phosphorylated p70S6K level by TR-FRET assay"}, "[14]": {"target": "T3, Phosphatidylinositol 4,5-bisphosphate 3-kinase catalytic subunit gamma isoform (Homo sapiens, UniProt P48736)", "T3 sequence (P48736 whole entry, canonical isoform)": "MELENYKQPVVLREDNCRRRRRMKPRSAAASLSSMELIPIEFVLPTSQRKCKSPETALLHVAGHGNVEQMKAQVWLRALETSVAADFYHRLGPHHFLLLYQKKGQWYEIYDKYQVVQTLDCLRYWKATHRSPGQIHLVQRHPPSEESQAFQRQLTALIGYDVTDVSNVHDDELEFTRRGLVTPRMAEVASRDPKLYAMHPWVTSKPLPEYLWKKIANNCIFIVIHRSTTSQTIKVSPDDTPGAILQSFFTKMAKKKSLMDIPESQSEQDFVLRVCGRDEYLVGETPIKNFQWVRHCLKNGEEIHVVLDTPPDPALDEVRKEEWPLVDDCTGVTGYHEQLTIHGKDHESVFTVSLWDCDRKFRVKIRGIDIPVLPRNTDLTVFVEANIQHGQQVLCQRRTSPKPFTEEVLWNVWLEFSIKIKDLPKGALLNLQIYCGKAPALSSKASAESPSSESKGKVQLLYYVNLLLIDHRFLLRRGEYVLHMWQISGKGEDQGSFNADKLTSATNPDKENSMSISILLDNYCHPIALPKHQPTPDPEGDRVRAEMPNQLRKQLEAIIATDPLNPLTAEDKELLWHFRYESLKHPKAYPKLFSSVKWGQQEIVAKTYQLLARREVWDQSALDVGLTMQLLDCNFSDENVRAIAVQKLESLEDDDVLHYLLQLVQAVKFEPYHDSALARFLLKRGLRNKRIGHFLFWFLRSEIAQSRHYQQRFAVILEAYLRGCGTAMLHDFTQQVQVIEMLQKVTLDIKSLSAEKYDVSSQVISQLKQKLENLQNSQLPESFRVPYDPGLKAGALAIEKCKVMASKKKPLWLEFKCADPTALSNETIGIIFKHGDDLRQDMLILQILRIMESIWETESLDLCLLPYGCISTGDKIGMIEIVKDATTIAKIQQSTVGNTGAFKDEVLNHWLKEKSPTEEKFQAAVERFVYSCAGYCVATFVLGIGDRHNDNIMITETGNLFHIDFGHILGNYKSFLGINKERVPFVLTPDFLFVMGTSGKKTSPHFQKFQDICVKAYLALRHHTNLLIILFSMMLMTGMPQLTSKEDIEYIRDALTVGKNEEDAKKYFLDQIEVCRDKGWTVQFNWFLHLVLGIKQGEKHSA", "test": "Inhibition of human PI3Kgamma preincubated for 15 mins followed by ATP addition measured after 1 hr by TR-FRET assay"}, "[15]": {"target": "T4, Phosphatidylinositol 4,5-bisphosphate 3-kinase catalytic subunit delta isoform (Homo sapiens, UniProt O00329)", "T4 sequence (O00329 whole entry)": "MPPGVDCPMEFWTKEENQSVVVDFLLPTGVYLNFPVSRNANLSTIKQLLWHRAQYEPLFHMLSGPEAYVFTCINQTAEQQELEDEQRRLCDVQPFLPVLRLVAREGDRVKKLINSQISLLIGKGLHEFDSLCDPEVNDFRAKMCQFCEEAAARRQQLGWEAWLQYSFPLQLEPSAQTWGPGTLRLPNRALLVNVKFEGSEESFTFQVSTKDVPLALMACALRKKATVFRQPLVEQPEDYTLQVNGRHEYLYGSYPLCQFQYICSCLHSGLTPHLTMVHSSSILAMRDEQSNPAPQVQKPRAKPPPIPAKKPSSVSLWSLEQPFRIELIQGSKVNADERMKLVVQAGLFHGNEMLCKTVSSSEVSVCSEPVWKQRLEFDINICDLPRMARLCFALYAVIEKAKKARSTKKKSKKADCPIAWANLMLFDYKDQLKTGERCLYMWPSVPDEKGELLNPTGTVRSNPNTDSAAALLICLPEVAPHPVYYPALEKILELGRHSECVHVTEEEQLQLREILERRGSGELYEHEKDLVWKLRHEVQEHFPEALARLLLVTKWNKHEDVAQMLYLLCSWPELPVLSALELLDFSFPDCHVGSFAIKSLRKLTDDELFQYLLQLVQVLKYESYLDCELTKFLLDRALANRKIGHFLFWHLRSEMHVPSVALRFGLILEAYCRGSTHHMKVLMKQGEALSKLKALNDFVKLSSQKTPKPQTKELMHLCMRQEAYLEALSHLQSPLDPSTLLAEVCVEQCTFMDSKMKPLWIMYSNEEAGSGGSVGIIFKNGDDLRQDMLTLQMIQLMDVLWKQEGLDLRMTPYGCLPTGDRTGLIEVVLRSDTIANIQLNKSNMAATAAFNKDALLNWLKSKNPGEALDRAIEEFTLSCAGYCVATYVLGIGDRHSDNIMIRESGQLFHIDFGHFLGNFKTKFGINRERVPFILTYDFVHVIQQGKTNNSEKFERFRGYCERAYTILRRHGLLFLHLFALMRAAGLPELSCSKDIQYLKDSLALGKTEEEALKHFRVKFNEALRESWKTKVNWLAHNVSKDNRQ", "test": "Inhibition of human PI3Kdelta preincubated for 15 mins followed by ATP addition measured after 1 hr by TR-FRET assay"}, "[16]": {"target": "PI3-kinase p110-alpha/p85-alpha (Homo sapiens, UniProt P42336)", "sequence (P27986 whole entry)": "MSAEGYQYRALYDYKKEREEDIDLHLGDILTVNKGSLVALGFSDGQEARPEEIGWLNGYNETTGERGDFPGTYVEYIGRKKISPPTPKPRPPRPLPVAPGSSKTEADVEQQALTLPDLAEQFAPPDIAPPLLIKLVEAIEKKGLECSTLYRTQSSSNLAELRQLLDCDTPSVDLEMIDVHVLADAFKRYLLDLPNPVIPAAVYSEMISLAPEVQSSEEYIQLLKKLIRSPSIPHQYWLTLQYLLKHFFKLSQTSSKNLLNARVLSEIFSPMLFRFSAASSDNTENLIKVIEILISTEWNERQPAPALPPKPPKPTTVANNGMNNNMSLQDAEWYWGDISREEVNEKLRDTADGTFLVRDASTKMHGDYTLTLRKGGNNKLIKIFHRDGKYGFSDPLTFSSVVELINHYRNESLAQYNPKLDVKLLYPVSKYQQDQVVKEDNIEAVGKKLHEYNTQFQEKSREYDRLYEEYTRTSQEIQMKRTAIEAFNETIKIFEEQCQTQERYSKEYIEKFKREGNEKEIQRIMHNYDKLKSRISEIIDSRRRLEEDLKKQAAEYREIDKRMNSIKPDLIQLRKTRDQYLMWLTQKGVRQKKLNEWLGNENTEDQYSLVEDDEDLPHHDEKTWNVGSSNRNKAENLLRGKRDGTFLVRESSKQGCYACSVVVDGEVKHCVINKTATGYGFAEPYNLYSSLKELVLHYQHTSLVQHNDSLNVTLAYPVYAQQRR", "sequence (P42336 whole entry)": "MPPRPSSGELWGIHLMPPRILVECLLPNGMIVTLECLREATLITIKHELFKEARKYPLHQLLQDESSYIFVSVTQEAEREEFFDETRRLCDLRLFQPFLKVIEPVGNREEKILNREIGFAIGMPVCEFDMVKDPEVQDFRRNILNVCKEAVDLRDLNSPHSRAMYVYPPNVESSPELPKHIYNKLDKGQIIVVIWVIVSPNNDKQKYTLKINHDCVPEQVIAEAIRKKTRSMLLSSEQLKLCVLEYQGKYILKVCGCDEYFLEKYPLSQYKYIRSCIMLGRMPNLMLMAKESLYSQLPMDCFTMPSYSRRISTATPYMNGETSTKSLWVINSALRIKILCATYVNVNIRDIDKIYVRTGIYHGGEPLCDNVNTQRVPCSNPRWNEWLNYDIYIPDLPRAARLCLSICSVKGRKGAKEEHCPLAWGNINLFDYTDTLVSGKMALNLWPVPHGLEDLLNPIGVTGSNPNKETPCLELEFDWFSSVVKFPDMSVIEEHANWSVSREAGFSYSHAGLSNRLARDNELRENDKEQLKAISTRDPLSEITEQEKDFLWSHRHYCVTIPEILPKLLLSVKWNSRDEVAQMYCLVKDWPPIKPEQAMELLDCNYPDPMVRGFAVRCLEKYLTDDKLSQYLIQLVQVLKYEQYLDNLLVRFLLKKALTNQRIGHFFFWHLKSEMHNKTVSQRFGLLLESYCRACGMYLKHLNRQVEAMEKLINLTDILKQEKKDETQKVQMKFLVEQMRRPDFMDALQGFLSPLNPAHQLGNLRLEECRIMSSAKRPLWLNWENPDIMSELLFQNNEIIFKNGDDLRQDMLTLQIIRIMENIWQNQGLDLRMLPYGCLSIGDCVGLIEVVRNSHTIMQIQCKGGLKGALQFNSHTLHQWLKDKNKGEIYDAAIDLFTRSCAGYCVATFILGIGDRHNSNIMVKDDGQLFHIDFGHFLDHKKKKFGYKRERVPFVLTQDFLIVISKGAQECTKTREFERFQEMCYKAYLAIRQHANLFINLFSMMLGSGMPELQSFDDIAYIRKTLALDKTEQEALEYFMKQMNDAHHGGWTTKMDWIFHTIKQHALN", "test": "Inhibition of PI3K p110alpha/p85alpha (unknown origin) using PIP2 as substrate preincubated for 15 mins followed by substrate addition measured after 1 hr in presence of ATP by TR-FRET assay", "type": "protein-complex assay"}, "[17]": {"target": "T2, Serine/threonine-protein kinase mTOR", "test": "Inhibition of recombinant mTOR (unknown origin) using GFP-4E-BP1 as substrate preincubated for 15 mins followed by substrate addition measured after 1 hr by TR-FRET assay"}, "[18]": {"system": "A549", "test": "Antitumor activity against human A549 cells assessed as cell growth inhibition incubated for 72 hrs by Cell Titer-Glo assay", "type": "functional, cell-based", "settings": "A549, 72 h"}, "[19]": {"test": "Solubility of the compound in water", "type": "physicochemical"}, "[20]": {"target": "Phosphatidylinositol 4,5-bisphosphate 3-kinase catalytic subunit beta isoform (Homo sapiens, UniProt P42338)", "sequence (P42338 whole entry, canonical isoform)": "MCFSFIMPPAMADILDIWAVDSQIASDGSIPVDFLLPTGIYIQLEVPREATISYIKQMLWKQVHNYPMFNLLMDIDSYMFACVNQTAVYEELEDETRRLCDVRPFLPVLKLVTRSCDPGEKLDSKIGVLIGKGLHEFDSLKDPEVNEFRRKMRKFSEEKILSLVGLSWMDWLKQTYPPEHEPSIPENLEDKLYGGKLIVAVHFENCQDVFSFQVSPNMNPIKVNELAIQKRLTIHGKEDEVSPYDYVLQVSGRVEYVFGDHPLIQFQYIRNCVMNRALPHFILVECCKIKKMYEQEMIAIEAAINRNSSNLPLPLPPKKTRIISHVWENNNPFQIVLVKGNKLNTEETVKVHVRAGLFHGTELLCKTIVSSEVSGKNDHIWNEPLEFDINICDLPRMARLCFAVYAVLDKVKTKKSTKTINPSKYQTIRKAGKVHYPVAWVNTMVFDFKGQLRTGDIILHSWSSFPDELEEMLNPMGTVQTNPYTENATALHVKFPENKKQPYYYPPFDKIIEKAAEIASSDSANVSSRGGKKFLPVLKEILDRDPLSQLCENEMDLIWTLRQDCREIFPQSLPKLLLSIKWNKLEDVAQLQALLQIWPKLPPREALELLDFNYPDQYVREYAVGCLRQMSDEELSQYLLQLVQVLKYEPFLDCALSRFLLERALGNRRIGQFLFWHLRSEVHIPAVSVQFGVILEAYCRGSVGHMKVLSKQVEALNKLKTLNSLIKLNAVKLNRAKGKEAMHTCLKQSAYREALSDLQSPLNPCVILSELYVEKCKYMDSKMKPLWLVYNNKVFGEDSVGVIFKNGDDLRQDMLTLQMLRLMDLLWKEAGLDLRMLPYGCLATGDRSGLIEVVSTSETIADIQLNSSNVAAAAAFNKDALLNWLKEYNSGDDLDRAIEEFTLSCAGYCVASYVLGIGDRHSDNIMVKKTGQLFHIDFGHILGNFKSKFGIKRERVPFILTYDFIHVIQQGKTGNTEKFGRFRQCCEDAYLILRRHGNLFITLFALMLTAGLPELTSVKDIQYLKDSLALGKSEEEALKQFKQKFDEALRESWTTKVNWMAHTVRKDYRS", "test": "Inhibition of PI3Kbeta (unknown origin) by TR-FRET assay"}, "[21]": {"target": "T3, Phosphatidylinositol 4,5-bisphosphate 3-kinase catalytic subunit gamma isoform", "test": "Inhibition of PI3Kgamma (unknown origin) by TR-FRET assay"}},
  "data": [
    {"smiles": "C[C@H]1COCCN1c1nc(N2CCO[C@@H]3CCCC[C@@H]32)nc2nc(-c3cccc(C4=NCC(C)(C)N4)c3)ccc12", "values": [
      {"measurement": "inhibition", "setting": "[1]", "value": 77.7, "unit": "%"},
      {"measurement": "inhibition", "setting": "[2]", "value": 83.2, "unit": "%"},
      {"measurement": "inhibition", "setting": "[3]", "value": 56.2, "unit": "%"}
    ]},
    {"smiles": "CNC(=O)c1cccc(-c2ccc3c(N4CCOC[C@@H]4C)nc(N4CCOC[C@@H]4C)nc3n2)c1", "values": [
      {"measurement": "inhibition", "setting": "[1]", "value": 87.7, "unit": "%"},
      {"measurement": "inhibition", "setting": "[2]", "value": 83.8, "unit": "%"},
      {"measurement": "inhibition", "setting": "[3]", "value": 73.9, "unit": "%"}
    ]},
    {"smiles": "CO[C@@H]1C[C@@H]2CC[C@@H](C)[C@@](O)(O2)C(=O)C(=O)N2CCCC[C@H]2C(=O)OC([C@H](C)C[C@@H]2C[C@@H]3C[C@H]2C[C@H]3O)CC(=O)[C@H](C)/C=C(\\C)[C@@H](O)[C@@H](OC)C(=O)[C@H](C)C[C@H](C)/C=C/C=C/C=C/1C", "note": "(stereo partly specified)", "values": [
      {"measurement": "Ki", "setting": "[4]", "value": 3.9, "unit": "nM"},
      {"measurement": "IC50", "setting": "[5]", "value": 0.19, "unit": "nM"},
      {"measurement": "IC50", "setting": "[6]", "value": 2.5, "unit": "nM"},
      {"measurement": "IC50", "setting": "[7]", "value": 2.2, "unit": "nM"},
      {"measurement": "IC50", "setting": "[8]", "value": 2.7, "unit": "nM"},
      {"measurement": "IC50", "setting": "[9]", "value": 0.1, "unit": "nM"}
    ]},
    {"smiles": "CNC(=O)c1cccc(-c2ccc3c(N4CCOC[C@@H]4C)nc(N4CCO[C@@H]5CCC[C@@H]54)nc3n2)c1", "values": [
      {"measurement": "inhibition", "setting": "[1]", "value": 89.9, "unit": "%"},
      {"measurement": "inhibition", "setting": "[2]", "value": 62, "unit": "%"},
      {"measurement": "inhibition", "setting": "[3]", "value": 89, "unit": "%"}
    ]},
    {"smiles": "CC(C)(O)c1ccc(-c2cnc3[nH]c(=O)n(CC4CCOCC4)c3n2)cn1", "values": [
      {"measurement": "IC50", "setting": "[10]", "value": 2550, "unit": "nM"},
      {"measurement": "IC50", "setting": "[11]", "value": 176, "unit": "nM"},
      {"measurement": "IC50", "setting": "[12]", "value": 2410, "unit": "nM"}
    ]},
    {"smiles": "C[C@H]1COCCN1c1cc2nc(-c3cccc(CO)c3)ccc2c(N2CCOC[C@@H]2C)n1", "values": [
      {"measurement": "IC50", "setting": "[13]", "value": "< 100", "unit": "nM"}
    ]},
    {"smiles": "COc1ccc(-c2ccc3c(N4CCOC[C@@H]4C)nc(N4CCOC[C@@H]4C)cc3n2)cc1", "values": [
      {"measurement": "IC50", "setting": "[13]", "value": "< 100", "unit": "nM"}
    ]},
    {"smiles": "CC(C)n1nc(-c2cc3cc(O)cc(F)c3[nH]2)c2c(N)ncnc21", "values": [
      {"measurement": "IC50", "setting": "[11]", "value": "< 5", "unit": "nM"},
      {"measurement": "IC50", "setting": "[14]", "value": 100, "unit": "nM"},
      {"measurement": "IC50", "setting": "[15]", "value": 50, "unit": "nM"}
    ]},
    {"smiles": "O=c1[nH]c2ncc(-c3ccc(-c4nc[nH]n4)cc3)nc2n1CCC1CCOCC1", "values": [
      {"measurement": "IC50", "setting": "[10]", "value": 18, "unit": "nM"},
      {"measurement": "IC50", "setting": "[11]", "value": 2, "unit": "nM"},
      {"measurement": "IC50", "setting": "[12]", "value": 40, "unit": "nM"}
    ]},
    {"smiles": "COc1ccc(-c2ccc3c(N4CCOC[C@@H]4C)nc(N4CCOC[C@@H]4C)cc3n2)cc1CO", "values": [
      {"measurement": "IC50", "setting": "[13]", "value": "< 100", "unit": "nM"}
    ]},
    {"smiles": "CC(C)n1nc(-c2cc3cccc(O)c3[nH]2)c2c(N)ncnc21", "values": [
      {"measurement": "IC50", "setting": "[11]", "value": "< 5", "unit": "nM"},
      {"measurement": "IC50", "setting": "[14]", "value": 100, "unit": "nM"},
      {"measurement": "IC50", "setting": "[15]", "value": 100, "unit": "nM"}
    ]},
    {"smiles": "CN(C)C(=O)C1CCC(Oc2nc(-c3ccc(N)nc3)nc(N3CCOCC3)n2)CC1", "note": "(stereo unspecified)", "values": [
      {"measurement": "IC50", "setting": "[16]", "value": "< 1000", "unit": "nM"},
      {"measurement": "IC50", "setting": "[17]", "value": "< 1000", "unit": "nM"}
    ]},
    {"smiles": "CO[C@@H]1C[C@@H]2CC[C@@H](C)[C@@](O)(O2)C(=O)C(=O)N2CCCC[C@H]2C(=O)O[C@H]([C@H](C)C[C@@H]2CC[C@@H](OC(=O)C[n+]3csc(C)c3C)[C@H](OC)C2)CC(=O)[C@H](C)/C=C(\\C)[C@@H](OC(=O)C[n+]2csc(C)c2C)[C@@H](OC)C(=O)[C@H](C)C[C@H](C)/C=C/C=C/C=C/1C.[Br-].[Br-]", "values": [
      {"measurement": "IC50", "setting": "[18]", "value": 6230, "unit": "nM"},
      {"measurement": "solubility", "setting": "[19]", "value": 100, "unit": "mg/mL"}
    ]},
    {"smiles": "O=S(=O)(Nc1cc(-c2ccc3ncc(N4CCNCC4)nc3c2)cnc1Cl)c1ccc(F)cc1", "values": [
      {"measurement": "IC50", "setting": "[20]", "value": 4.77, "unit": "nM"},
      {"measurement": "IC50", "setting": "[21]", "value": 5.14, "unit": "nM"}
    ]}
  ]
}
